How the values were obtained:
[1] = system: SOD1-G93A mice; assay: Clinical outcomes (disease onset, life span, motor score) in SOD1-G93A mice grafted with human NSCs; conditions: SOD1-G93A mice grafted with live NSCs, by immunosuppressive regimen
Method: Thus, five experimental groups were given different immunosuppressive treatments: the first group was treated with FK506 monotherapy (Prograf, Fujisawa Healthcare, Inc., Deerfield, Ill.) (2 μg/g/day, n=23); a second group was treated with a double immunosuppressive regimen combining FK506 and rapamycin (Calbiochem, La Jolla, Calif.) (1 μg/g/day each, n=21); a third group received triple immunosuppression with FK506, rapamycin, and MMF (CellCept, Roche, Nutley, N.J.) (1 μg/g/day each for FK506 and rapamycin, 100 μg/g/day for MMF, n=14); a fourth group was treated with CD4 antibodies (clone GK1.5, 20 μg/g/day, n=12); and a fifth group (n=10) was treated with FK506 plus rapamycin exactly as the second group, except that subjects were grafted with dead cells. Dead-cell grafts utilized cells that were exposed to repeated freezing-thawing and served to control for the potential therapeutic effects of immunosuppressants themselves on motor neuron disease. […]
Clinical outcomes were studied on the same set of data originating from five concurrent treatment groups allowed to survive to terminal illness. […] Variance in disease onset and life span was analyzed with one-way ANOVA, followed by a Fisher LSD post hoc test. Variance in motor score curves was analyzed by repeated-measures ANOVA, followed by Fisher LSD testing. […]

[2] = system: SOD1-G93A mice grafted with human NSCs; assay: Graft rejection and human NSC graft survival under immunosuppressive regimens in SOD1-G93A mice (ICC for HNu, CD4, CD8, DX5, Iba-1); conditions: compared to the double immunosuppressive regimen
Method: Thus, five experimental groups were given different immunosuppressive treatments: the first group was treated with FK506 monotherapy (Prograf, Fujisawa Healthcare, Inc., Deerfield, Ill.) (2 μg/g/day, n=23); a second group was treated with a double immunosuppressive regimen combining FK506 and rapamycin (Calbiochem, La Jolla, Calif.) (1 μg/g/day each, n=21); a third group received triple immunosuppression with FK506, rapamycin, and MMF (CellCept, Roche, Nutley, N.J.) (1 μg/g/day each for FK506 and rapamycin, 100 μg/g/day for MMF, n=14); a fourth group was treated with CD4 antibodies (clone GK1.5, 20 μg/g/day, n=12); and a fifth group (n=10) was treated with FK506 plus rapamycin exactly as the second group, except that subjects were grafted with dead cells. Dead-cell grafts utilized cells that were exposed to repeated freezing-thawing and served to control for the potential therapeutic effects of immunosuppressants themselves on motor neuron disease. […] Males and females were randomly admixed in the various experimental groups to minimize a systemic effect of gender on disease progression and treatment response. […]

C=CC[C@@H]1/C=C(\C)C[C@H](C)C[C@H](OC)[C@H]2O[C@@](O)(C(=O)C(=O)N3CCCC[C@H]3C(=O)O[C@H](/C(C)=C/[C@@H]3CC[C@@H](O)[C@H](OC)C3)[C@H](C)[C@@H](O)CC1=O)[C@H](C)C[C@@H]2OC [FK506]
average disease onset [1]: 13.2±1.8 weeks | life span [1]: 17.6±2.0 weeks

COc1c(C)c2c(c(O)c1C/C=C(\C)CCC(=O)OCCN1CCOCC1)C(=O)OC2 [MMF, mycophenolate mofetil]
effect of adding MMF to FK506 plus rapamycin on graft survival and infiltration by CD4/CD8 (+) cells or microglia/macrophages [2]: no apparent effects
